Publication PMC12516390 (ACS Medicinal Chemistry Letters, 2025)
Values after ≈ are worked out from the molar mass of the structure shown. Read-outs that look alike come from different tables or passages of the source.

Legend:
[1] = target: T1, Human Recombinant Cathepsin K (Homo sapiens, UniProt P43235); assay: Cathepsin selectivity screening, Cat K (Z-Phe-Arg-AMC); format: biochemical; conditions: Z-Phe-Arg-AMC substrate
T1 sequence (P43235 115-329): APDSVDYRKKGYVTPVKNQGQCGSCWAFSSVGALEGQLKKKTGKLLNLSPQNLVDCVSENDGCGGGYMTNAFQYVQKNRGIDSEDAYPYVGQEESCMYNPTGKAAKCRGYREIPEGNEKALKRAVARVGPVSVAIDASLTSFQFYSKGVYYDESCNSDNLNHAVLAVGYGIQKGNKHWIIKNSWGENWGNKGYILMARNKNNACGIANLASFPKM

in vitro [2] = conditions: African monkey
recombinant M^Pro = recombinant M^Pro (Severe acute respiratory syndrome coronavirus 2, UniProt P0DTD1); assay: SARS-CoV-2 Mpro screening and IC50 determination (QS1 fluorogenic substrate, Drag assay); format: biochemical
[3] = target: Human Recombinant Cathepsin B (Homo sapiens, UniProt P07858); assay: Cathepsin selectivity screening, Cat B (Z-Phe-Arg-AMC); format: biochemical; conditions: for IC50: Z-Phe-Arg-AMC substrate
physchem [4] = conditions: pH 7.4
[5] = target: Human Recombinant Cathepsin L (Homo sapiens, UniProt P07711); assay: Cathepsin selectivity screening, Cat L (Z-Phe-Arg-AMC); format: biochemical; conditions: Z-Phe-Arg-AMC substrate
in vitro [6] = conditions: human, microsomes, pH 7.4
in vitro [7] = conditions: mouse, microsomes, pH 7.4
[8] = target: Human Recombinant Cathepsin S (Homo sapiens, UniProt P25774); assay: Cathepsin selectivity screening, Cat S (Z-Val-Val-Arg-AMC); format: biochemical; conditions: Z-Val-Val-Arg-AMC substrate
physchem [9] = conditions: pH 7.4, aqueous buffer, kinetic from dmso stock
[10] = Table 5, read-out: IC50 (μM) CatK
[11] = IC50 (μM) M^Pro, recombinant M^Pro, 20 μM QS1 substrate, Table 5
[12] = M^Pro IC50 (μM), recombinant M^Pro, Table 6
[13] = Table 5, read-out: IC50 (μM) CatB
[14] = Table 5, read-out: IC50 (μM) CatL
[15] = Table 5, read-out: IC50 (μM) CatS
[16] = M^Pro IC50 (μM), recombinant M^Pro, 20 μM QS1 substrate, Table 3

Chain of Human Recombinant Cathepsin L (P07711 114-333): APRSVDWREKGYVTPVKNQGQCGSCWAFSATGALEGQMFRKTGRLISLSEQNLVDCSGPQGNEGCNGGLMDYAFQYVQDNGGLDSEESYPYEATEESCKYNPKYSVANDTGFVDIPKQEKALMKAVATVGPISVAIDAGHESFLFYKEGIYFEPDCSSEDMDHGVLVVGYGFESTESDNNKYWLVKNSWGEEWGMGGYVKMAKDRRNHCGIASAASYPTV
Chain of Human Recombinant Cathepsin S (P25774 115-331): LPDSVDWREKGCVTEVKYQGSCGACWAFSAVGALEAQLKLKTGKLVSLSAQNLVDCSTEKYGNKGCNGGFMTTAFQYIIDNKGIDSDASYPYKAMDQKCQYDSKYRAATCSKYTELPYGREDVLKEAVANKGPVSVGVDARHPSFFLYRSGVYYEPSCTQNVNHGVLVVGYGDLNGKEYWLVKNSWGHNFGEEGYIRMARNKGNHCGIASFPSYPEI

Compound	IC50 [1, 10] [µM]	CC50 (in vitro [2]) [nM]	IC50 (recombinant M^Pro; [11]) [µM]	IC50 (recombinant M^Pro; [12]) [µM]	activity against cathepsin B (in words) [3]	IC50 [3, 13] [µM]	logD (physchem [4])	IC50 [5, 14] [µM]	microsomal CLint at 1 μM (in vitro [6]) [µL/min/mg]	microsomal CLint at 1 μM (in vitro [7]) [µL/min/mg]	IC50 [8, 15] [µM]	solubility kinetic (physchem [9]) [µM]	IC50 ([1]; Table 4, read-out: CatK IC50) [µM]	IC50 (recombinant M^Pro; M^Pro IC50 (nM), Table 4) [µM]	IC50 (recombinant M^Pro; [16]) [µM]	IC50 ([3]; Table 4, read-out: CatB IC50) [µM]	IC50 ([5]; Table 4, read-out: CatL IC50) [µM]	IC50 ([8]; Table 4, read-out: CatS IC50) [µM]
COc1cccc(-c2ccc(C(=O)N3C[C@H]4[C@@H]([C@H]3C(=O)N[C@H](C#N)C[C@@H]3CCNC3=O)C4(C)C)c(Cl)c2)c1 [22f]	4.52	> 100000	0.12	0.12	completely abolished	> 10	3.5	> 10	209	450	1.29	82 (≈ 43.9 µg/mL)						
CC(C)C[C@H](NC(=O)c1ccc(-c2cccc3nn(C)cc23)cc1F)C(=O)N[C@H](C#N)C[C@@H]1CCNC1=O [18a]		> 100000											0.0485	0.163	0.162	0.142	> 10	0.0279
COc1cccc(-c2ccc(C(=O)N[C@@H](CC(C)C)C(=O)N[C@H](C#N)C[C@@H]3CCNC3=O)c(Cl)c2)c1 [18n]	0.329	> 100000		0.049		0.115	3.1		40	111	0.015	34 (≈ 17.4 µg/mL)	0.329	0.049	0.049	0.115	> 10	0.0155
COc1cccc(-c2ccc(C(=O)N[C@@H](CC3CCCCC3)C(=O)N[C@H](C#N)C[C@@H]3CCNC3=O)c(Cl)c2)c1 [23d]	0.887	> 100000	0.094			0.137		> 10			0.011							
COc1ccc(-c2ccc(C(=O)N[C@@H](CC(C)C)C(=O)N[C@H](C#N)C[C@@H]3CCNC3=O)c(F)c2)cc1 [18b]		51600											0.077	0.178	0.178	0.106	> 10	0.232
COc1ccc(-c2ccc(C(=O)N[C@@H](CC(C)C)C(=O)N[C@H](C#N)C[C@@H]3CCNC3=O)c(Cl)c2)cc1 [18r]		40100											0.123	0.045	0.045	0.193	> 10	0.0246
COc1ccc(-c2ccc(C(=O)N3C[C@H]4[C@@H]([C@H]3C(=O)N[C@H](C#N)C[C@@H]3CCNC3=O)C4(C)C)c(Cl)c2)cc1 [22e]	2.08	> 100000	0.087	0.087	completely abolished	> 10	3.4	> 10	183	450	1.03	97 (≈ 51.9 µg/mL)						
